Results as given in patent publication US20260354380A1, “PYRAZOLO PESTICIDAL COMPOUNDS” (BASF SE, priority 2022, published 2026).

Legend:
Type in all cases: in vivo
[1] = tested on: Anthonomus grandis; test: Action on Boll Weevil (Anthonomus grandis); settings: 800 ppm, egg and larval mortality, 5 days
Method: Example B3: Action on Boll Weevil (Anthonomus grandis)
For evaluating control of boll weevil (Anthonomus grandis) the test unit consisted of 96-well-microtiter plates containing an insect diet and 5-10 A. grandis eggs.
The compounds were formulated using a solution containing 75% (v/v) water and 25% (v/v) DMSO. Different concentrations of formulated compounds were sprayed onto the insect diet at 5 μl, using a custom-built micro atomizer, at two replications.
After application, microtiter plates were incubated at about 25±1 °C and about 75±5% relative humidity for 5 days. Egg and larval mortality were then visually assessed.

[2] = tested on: Spodoptera eridania; test: Action on Southern Armyworm (Spodoptera eridania), 2nd Instar Larvae; settings: 300 ppm, 2nd instar larvae, 4 days after treatment
Method: Example B7: Action on Southern Armyworm (Spodoptera eridania), 2nd Instar Larvae
The active compounds were formulated by a Tecan liquid handler in 100% cyclohexanone as a 10,000 ppm solution supplied in tubes. The 10,000 ppm solution was serially diluted in 100% cyclohexanone to make interim solutions. These served as stock solutions for which final dilutions were made by the Tecan in 50% acetone: 50% water (v/v) into 10 or 20 ml glass vials. A nonionic surfactant (Kinetic®) was included in the solution at a volume of 0.01% (v/v). The vials were then inserted into an automated electrostatic sprayer equipped with an atomizing nozzle for application to plants/insects.
Lima bean plants (variety Sieva) were grown 2 plants to a pot and selected for treatment at the 1st true leaf stage. Test solutions were sprayed onto the foliage by an automated electrostatic plant sprayer equipped with an atomizing spray nozzle. The plants were dried in the sprayer fume hood and then removed from the sprayer. Each pot was placed into perforated plastic bags with a zip closure. About 10 to 11 armyworm larvae were placed into the bag and the bags zipped closed. Test plants were maintained in a growth room at about 25 °C and about 20-40% relative humidity for 4 days, avoiding direct exposure to fluorescent light (24 hour photoperiod) to prevent trapping of heat inside the bags. Mortality and reduced feeding were assessed 4 days after treatment, compared to untreated control plants.
(§1) Compounds disclosed in the document WO2021013561 were prepared according to procedures described therein and their pesticidal activities were determined by procedure analogues to the procedures as described above in examples B6 and B7.

[3] = tested on: Heliothis virescens; test: Action on Tobacco Budworm (Heliothis virescens); settings: 800 ppm, egg and larval mortality, 5 days
Method: Example B5: Action on Tobacco Budworm (Heliothis virescens)
For evaluating control of tobacco budworm (Heliothis virescens) the test unit consisted of 96-well-microtiter plates containing an insect diet and 15-25 H. virescens eggs.
The compounds were formulated using a solution containing 75% v/v water and 25% v/v DMSO. Different concentrations of formulated compounds were sprayed onto the insect diet at 10 μl, using a custom-built micro atomizer, at two replications.
After application, microtiter plates were incubated at about 28±1 °C and about 80±5% relative humidity for 5 days. Egg and larval mortality were then visually assessed.

[4] = tested on: Aedes aegypti; test: whole plant or invertebrate; settings: for mortality in comparison with untreated controls: 800 ppm, larvae, 2 days
Method: Example B1: Action on Yellow Fever Mosquito (Aedes aegypti)
For evaluating control of yellow fever mosquito (Aedes aegypti) the test unit consisted of 96-well-microtiter plates containing 200 μl of tap water per well and 5-15 freshly hatched A. aegypti larvae.
The active compounds or mixtures were formulated using a solution containing 75% (v/V) water and 25% (v/v) DMSO. Different concentrations of formulated compounds or mixtures were sprayed onto the insect diet at 2.5 μl, using a custom-built micro atomizer, at two replications. For experimental mixtures in these tests identical volumes of both mixing partners at the desired concentrations respectively, were mixed together.
After application, microtiter plates were incubated at 28±1 °C, 80±5% RH for 2 days. Larval mortality was then visually assessed.

[5] = tested on: Plutella xylostella; test: Action on Diamond Back Moth (Plutella xylostella), cabbage leaf dip, 3rd instar larvae; settings: 300 ppm, 3rd instar larvae, 72 hours after treatment
Method: Example B6: Action on Diamond Back Moth (Plutella xylostella)
The active compound is dissolved at the desired concentration in a mixture of 1:1 (v/v) distilled water:acetone. Surfactant (Kinetic® HV) is added at a rate of 0.01% (v/v). The test solution is prepared at the day of use.
Leaves of cabbage were dipped in test solution and air-dried. Treated leaves were placed in petri dishes lined with moist filter paper and inoculated with ten 3rd instar larvae. Mortality was recorded 72 hours after treatment. Feeding damages were also recorded using a scale of 0-100%.
as §1

SMILES | mortality in comparison with untreated controls [1] | mortality in comparison with untreated controls [2] | mortality in comparison with untreated controls [3] | mortality in comparison with untreated controls [4] | mortality in comparison with untreated controls [5] | mortality at 800 ppm ([1]; Anthonomus grandis, 120 h, read-out: mortality in comparison with untreated controls) [%] | mortality at 300 ppm ([2]; Spodoptera eridania, 96 h, read-out: mortality in comparison with untreated controls) [%] | mortality at 800 ppm ([3]; Heliothis virescens, 120 h, read-out: mortality in comparison with untreated controls) [%] | mortality at 800 ppm ([4]; Aedes aegypti, 48 h, read-out: mortality in comparison with untreated controls) [%] | mortality at 300 ppm ([5]; Plutella xylostella, foliar, read-out: mortality in comparison with untreated controls) [%]
Cc1ccc(C(C)C)c(N2C(=O)CS/C2=N\C(=O)Nc2ccc(-n3cc(NC(=O)c4ccc(OC(F)(F)F)cc4)c(C)n3)cc2C#N)c1 [Example C-13] | at least 75% | at least 75% | at least 75% | at least 50% | at least 75% |  |  |  |  | 
Cc1ccc(C(C)C)c(N2C(=O)CS/C2=N\C(=O)Nc2ccc(-n3nc(C)c(NC(=O)c4ccc(OC(F)(F)F)cc4)c3C)cc2)c1 [Example C-15] | at least 75% | at least 75% | at least 75% | at least 50% | at least 75% |  |  |  |  | 
COc1ccc(C(=O)Nc2cn(-c3ccc(NC(=O)/N=C4\SCC(=O)N4c4cc(C)ccc4C(C)C)cc3)nc2C)cc1 [Example C-32] | at least 75% | at least 75% | at least 75% | at least 50% | at least 75% |  |  |  |  | 
Cc1ccc(C(F)(F)F)c(N2C(=O)CS/C2=N\C(=O)Nc2ccc(-n3nc(C)c(NC(=O)c4ccc(OC(F)(F)F)cc4)c3C)cc2)c1 [Example C-16] | at least 75% | at least 75% | at least 75% | at least 50% | at least 75% |  |  |  |  | 
Cc1ccc(C(=O)Nc2cn(-c3ccc(NC(=O)N=C4SCC(=O)N4c4cc(C)ccc4C(C)C)cc3)nc2C)cc1 [Example C-49] | at least 75% | at least 75% | at least 75% | at least 50% | at least 75% |  |  |  |  | 
COc1cc(-n2cc(NC(=O)c3ccc(OC(F)(F)F)cc3)c(C)n2)ccc1NC(=O)/N=C1\SCC(=O)N1c1cc(C)ccc1C(C)C [Example C-14] | at least 75% | at least 75% | at least 75% | at least 50% | at least 75% |  |  |  |  | 
C#Cc1ccc(C(=O)Nc2cn(-c3ccc(NC(=O)/N=C4\SCC(=O)N4c4cc(C)ccc4C(C)C)cc3)nc2C)cc1 [Example C-34] | at least 75% | at least 75% | at least 75% | at least 50% | at least 75% |  |  |  |  | 
Cc1ccc(C(C)C)c(N2C(=O)CS/C2=N\C(=O)Nc2ccc(-n3cc(NC(=O)c4cccs4)c(C)n3)cc2)c1 [Example C-95] | at least 75% | at least 75% | at least 75% | at least 50% | at least 75% |  |  |  |  | 
Cc1ccc(C(C)C)c(N2C(=O)CS/C2=N\C(=O)Nc2ccc(-n3cc(NC(=O)c4ccc(F)c(Cl)c4)c(C)n3)cc2)c1 [Example C-28] | at least 75% | at least 75% | at least 75% | at least 50% | at least 75% |  |  |  |  | 
Cc1ccc(C(C)C)c(N2C(=O)CS/C2=N\C(=O)Nc2ccc(-n3nc(C)c(NC(=O)c4ccc(OC(F)(F)F)cc4)c3C)cc2C2CC2)c1 [Example C-96] | at least 75% | at least 75% | at least 75% | at least 50% | at least 75% |  |  |  |  | 
Cc1ccc(C(C)C)c(N2C(=O)CS/C2=N\C(=O)Nc2ccc(-n3nc(C)c(NC(=O)c4ccc(OC(F)(F)F)cc4)c3C3CC3)cc2)c1 [Example C-5, N-[5-cyclopropyl-1-[4-[[(Z)-[3-(2-isopropyl-5-methyl-phenyl)-4-oxo-thiazolidin-2-ylidene]carbamoyl]amino]phenyl]-3-methyl-pyrazol-4-yl]-4-(trifluoromethoxy)benzamide] |  |  |  |  |  | ≥ 75 | ≥ 75 | ≥ 75 | ≥ 50 | ≥ 75
Cc1nn(-c2ccc(NC(=O)N=C3SCC(=O)N3c3ccccc3C(C)C)cc2)cc1NC(=O)c1ccc(OC(F)(F)F)cc1 [Example C-8] | at least 75% | at least 75% | at least 75% | at least 50% | at least 75% |  |  |  |  | 
Cc1ccc(C(C)C)c(N2C(=O)CSC2=NC(=O)Nc2ccc(-n3cc(NC(=O)c4cc(Cl)cs4)c(C)n3)cc2)c1 [Example C-40] | at least 75% | at least 75% | at least 75% | at least 50% | at least 75% |  |  |  |  | 
Cc1ccc(C(C)C)c(N2C(=O)CSC2=NC(=O)Nc2ccc(-n3cc(NC(=O)c4nc(Cl)cs4)c(C)n3)cc2)c1 [Example C-42] | at least 75% | at least 75% | at least 75% | at least 50% | at least 75% |  |  |  |  | 
Cc1ccc(C(C)C)c(N2C(=O)CS/C2=N\C(=O)Nc2ccc(-n3cc(NC(=O)c4ccc(CBr)cc4)c(C)n3)cc2)c1 [Example C-31] | at least 75% | at least 75% | at least 75% | at least 50% | at least 75% |  |  |  |  | 
Cc1ccc(C(C)C)c(N2C(=O)CSC2=NC(=O)Nc2ccc(-n3cc(NC(=O)c4csc(Cl)c4)c(C)n3)cc2)c1 [Example C-39] | at least 75% | at least 75% | at least 75% | at least 50% | at least 75% |  |  |  |  | 
